Legend:
healthy volunteers [1] = assay: Scintigraphic gastrointestinal and colonic transit, CDC study; assay type: in vivo, human; conditions: for AC t1/2 (ascending colon emptying) / CF 6 (colonic filling at 6 hours) / GC 4 (colonic geometric center) / GC 24 (colonic geometric center at 24 hours) / GC 48 (colonic geometric center at 48 hours) / GE t1/2: N = 20, mean ± SEM
Protocol: A double-blind, placebo-controlled, parallel-group, randomized study was conducted to evaluate the effects of oral sodium chenodeoxycholate (CDC) or placebo, once daily for 4 days, in healthy volunteers. In a second trial, oral colesevelam hydrochloride or placebo were administered for 12-14 days in patients with diarrhea-predominant irritable bowel syndrome (IBS-D). The study was approved by a review board and all participants signed informed consent. In both studies, allocation was concealed from the study investigators. In the first trial, participants were randomized to placebo, CDC 500 mg, or 1000 mg (20 per group). Sodium CDC (unconjugated) was purchased from Calbiochem (EMD Biosciences Inc., San Diego, Calif. 92121), and the Mayo pharmacy prepared identical placebo and CDC capsules, all of which were coated with the pH sensitive polymer, methacrylate (Eudragit® S-100, Rohm Pharmaceuticals, Darmstadt D-64293, Germany). The latter dissolves at the neutral pH found in the distal ileum and was used to ensure ileocolonic delivery of the CDC or placebo. All participants were screened for idiopathic bile acid malabsorption (BAM) with fasting serum 7alpha-hydroxy-4-cholesten-3-one (7αC4). 60 patients (mean age 38.7 years, 43 female) were enrolled to the study. Three groups (n=20 each) were randomized to one oral capsule daily containing placebo, 500 mg, or 1000 mg CDC, each for a period of 4 days. Gastrointestinal (GI) and colonic transit was conducted by a scintigraphic method (Burton et al., J. Nucl. Med., 38:1807-1810 (1997) and Cremonini et al., Aliment Pharmacol. Ther., 16:1781-1790 (2002)) during the last 48 hours of drug ingestion. An adaptation of an established scintigraphic method was used to measure gastrointestinal and colonic transit (Burton et al., J. Nucl. Med., 38:1807-1810 (1997) and Cremonini et al., Aliment Pharmacol. Ther., 16:1781-1790 (2002)). Patients with IBS-D had baseline measurement of colonic transit since this is known to be a significant covariate in treatment responses. The primary endpoints were the colonic geometric center (GC) at 24 hours (GC 24) and ascending colon (AC) emptying t1/2. […] The capsule was ingested following an overnight fast. After the capsule emptied from the stomach, a 99 mTc-sulfur colloid radiolabeled meal was ingested. It consisted of two scrambled eggs, one slice of whole wheat bread, and one glass of whole milk. This meal allowed measurement of gastric and small bowel transit. Subjects ingested standardized meals for lunch and dinner at 4 and 8 hours after the radiolabeled meal, respectively. Abdominal scans were obtained every hour for the first 6 hours (the first 4 hours for the assessment of gastric emptying) and at 8, 24, and 48 hours after ingestion of the ^111In capsule. The counts in the stomach and each of four colonic regions, ascending, transverse, descending, and combined sigmoid and rectum, were quantitated with a variable region of interest program. Counts were corrected for isotope decay, tissue attenuation, and downscatter of ^111In counts in the 99 mTc window. Gastric emptying t1/2 is a measure of the time for 50% of the radiolabeled meal (identifiable by radiolabeled tracer) to empty from the stomach. Colonic filling at 6 hours, or the proportion of the radiolabeled meal to have reached the colon at 6 hours, is an indirect measurement of small bowel transit time. Overall colonic transit was summarized as the colonic geometric center (GC) at specified times. The GC is the weighted average of counts in the different colonic regions (ascending (AC), transverse (TC), descending (DC), rectosigmoid (RS)) and stool, respectively 1 to 5. At any time, the proportion of counts in each colonic region is multiplied by its weighting factor as follows: (%AC×1+%TC×2+%DC×3+%RS×4+%stool×5)/100=GC Thus, a higher GC reflects a faster colonic transit. Ascending colon emptying was summarized by the t1/2 calculated by linear interpolation of values on the AC emptying curve.

healthy volunteers [2] = assay: Daily stool diaries (bowel function), CDC study; assay type: in vivo, human; conditions: for Ease of passage (scale1-7) / Stool consistency by Bristol Stool Form Scale / Stool frequency per day: N = 20, mean ± SEM
Protocol: 60 patients (mean age 38.7 years, 43 female) were enrolled to the study. Three groups (n=20 each) were randomized to one oral capsule daily containing placebo, 500 mg, or 1000 mg CDC, each for a period of 4 days. Gastrointestinal (GI) and colonic transit was conducted by a scintigraphic method (Burton et al., J. Nucl. Med., 38:1807-1810 (1997) and Cremonini et al., Aliment Pharmacol. Ther., 16:1781-1790 (2002)) during the last 48 hours of drug ingestion. All participants completed bowel function diaries that documented the time of each bowel movement, stool consistency (Bristol Stool Form Scale), the ease of passage (ranging from 1=“manual disimpaction” to 7=“incontinence”), and completeness of evacuation (1=“yes” and 0=“no”). In the first study, patients recorded diaries during at least 3 days of the baseline period and the 4 days of treatment. The diaries were recorded for at least 3 days of the baseline period and during the entire treatment period of the second study.

healthy volunteers [3] = test system: healthy volunteers; parameters: species or system human; conditions: in vivo
Protocol: An independent statistician, who otherwise was not involved in the study, generated the randomization codes, and the allocation was concealed. All clinical and laboratory study personnel were blinded throughout the study until all data were locked and analyzed. Clinical safety monitoring was conducted by the study investigators throughout the study. 60 patients (mean age 38.7 years, 43 female) were enrolled to the study. Three groups (n=20 each) were randomized to one oral capsule daily containing placebo, 500 mg, or 1000 mg CDC, each for a period of 4 days. Gastrointestinal (GI) and colonic transit was conducted by a scintigraphic method (Burton et al., J. Nucl. Med., 38:1807-1810 (1997) and Cremonini et al., Aliment Pharmacol. Ther., 16:1781-1790 (2002)) during the last 48 hours of drug ingestion.

[4] = CDC 500 mg once daily for 4 days
[5] = CDC 1000 mg once daily for 4 days

C[C@H](CCC(=O)[O-])[C@H]1CC[C@H]2[C@@H]3[C@H](O)C[C@@H]4C[C@H](O)CC[C@]4(C)[C@H]3CC[C@]12C.[Na+] [CDC, sodium chenodeoxycholate]
AC t1/2 (ascending colon emptying) (healthy volunteers [1]; [4]): 12.1 ± 2.1 h | CF 6 (colonic filling at 6 hours) (healthy volunteers [1]; [4]): 49.6 ± 7.0% | GC 4 (colonic geometric center) (healthy volunteers [1]; [4]): 0.87 ± 0.18 | GC 24 (colonic geometric center at 24 hours) (healthy volunteers [1]; [4]): 2.80 ± 0.27 | GC 48 (colonic geometric center at 48 hours) (healthy volunteers [1]; [4]): 4.10 ± 0.21 | GE t1/2 (healthy volunteers [1]; [4]): 2.115 ± 0.0883 h | Treatment effect on colonic filling at 6 hours (in words) (healthy volunteers [1]; CDC 500 mg or 1000 mg vs placebo): not detected | AC t1/2 (ascending colon emptying) (healthy volunteers [1]; [5]): 10.7 ± 1.9 h | CF 6 (colonic filling at 6 hours) (healthy volunteers [1]; [5]): 46.0 ± 7.1% | GC 4 (colonic geometric center) (healthy volunteers [1]; [5]): 1.27 ± 0.33 | GC 24 (colonic geometric center at 24 hours) (healthy volunteers [1]; [5]): 3.76 ± 0.30 | GC 48 (colonic geometric center at 48 hours) (healthy volunteers [1]; [5]): 4.92 ± 0.05 | GE t1/2 (healthy volunteers [1]; [5]): 2.383 ± 0.235 h | Effect on colonic transit (GC) at 24 and 48 hours (in words) (healthy volunteers [1]; FIG. 3, 1000 mg p<0.0001, 500 mg p<0.01 vs placebo): overall acceleration of colonic transit | Ease of passage (scale1-7) (healthy volunteers [2]; [4]): 4.1 ± 0.06 | Stool consistency by Bristol Stool Form Scale (healthy volunteers [2]; [4]): 4.29 ± 0.19 | Stool frequency per day (healthy volunteers [2]; [4]): 1.50 ± 0.18 per day | Effect on sense of complete evacuation (in words) (healthy volunteers [2]; CDC 500 mg or 1000 mg vs placebo, p=0.02): significant overall treatment effects | Ease of passage (scale1-7) (healthy volunteers [2]; [5]): 4.3 ± 0.06 | Stool consistency by Bristol Stool Form Scale (healthy volunteers [2]; [5]): 4.80 ± 0.15 | Stool frequency per day (healthy volunteers [2]; [5]): 2.01 ± 0.15 per day | Effect on stool form/consistency (in words) (healthy volunteers [2]; FIG. 3, p<0.0001): more liquid consistency stool | Effect on stool frequency (in words) (healthy volunteers [2]; FIG. 3, p<0.001): increase in stool frequency | Adverse event: headache, rate (healthy volunteers [3]): 20-25% | Adverse events: gas, bloating and nausea, participants (healthy volunteers [3]): 5-20%
